The supplement of paper PMC9013687
± gives the standard deviation of the averaged measurements.

Tests used:
Danio rerio embryo [1] = experiment: EC10 Curvature_Increase; higher = less potent
Method: (§1)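 Zebrafish embryos (UFZ-OBI strain) were exposed from 2 hpf for 48 h (2 dpf) or 96 h (4 dpf) at 28 °C; spontaneous tail coiling was scored at 25 hpf. Morphological features from automated image analysis (FishInspector), heart rate and locomotor response were fitted with drc models. Quantal endpoints were dichotomised at 2.5 SD from controls and fitted with a log-logistic model; heart rate, pigmentation and STC were normalised to the replicate control mean. Betamethasone was tested as betamethasone dipropionate, diflorasone as diflorasone diacetate.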

Danio rerio embryo [2] = experiment: EC20 Curvature_Increase; higher = less potent
Method: as §1

Danio rerio embryo [3] = experiment: EC20 Body length_Decrease; higher = less potent; conditions: exposure time: 4 dpf
Method: as §1

Danio rerio embryo [4] = experiment: EC10 Body length_Decrease; higher = less potent; conditions: exposure time: 4 dpf
Method: as §1

Danio rerio embryo [5] = experiment: EC10 Bladder size_Decrease; higher = less potent; conditions: exposure time: 4 dpf
Method: as §1

Danio rerio embryo [6] = experiment: EC20 Bladder size_Decrease; higher = less potent; conditions: exposure time: 4 dpf
Method: as §1

Danio rerio embryo [7] = experiment: EC20 Yolk sac size_Increase; higher = less potent
Method: as §1

Danio rerio embryo [8] = experiment: EC20 Pericard size_Increase; higher = less potent
Method: as §1

Danio rerio embryo [9] = experiment: EC10 Yolk sac size_Increase; higher = less potent
Method: as §1

Danio rerio embryo [10] = experiment: EC10 Pericard size_Increase; higher = less potent
Method: as §1

Danio rerio embryo [11] = experiment: EC20 Eye-jaw distance_Decrease; higher = less potent; conditions: exposure time: 4 dpf
Method: as §1

Danio rerio embryo [12] = experiment: EC10 Eye-jaw distance_Decrease; higher = less potent; conditions: exposure time: 4 dpf
Method: as §1

Danio rerio embryo [13] = experiment: EC20 Otolith-eye distance_Decrease; higher = less potent; conditions: exposure time: 4 dpf
Method: as §1

Danio rerio embryo [14] = experiment: EC10 Otolith-eye distance_Decrease; higher = less potent; conditions: exposure time: 4 dpf
Method: as §1

Danio rerio embryo [15] = experiment: spontaneous tail coiling frequency (coils/min/embryo); higher = more spontaneous movement; conditions: 25 hpf
Method: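 Spontaneous tail coilings of zebrafish embryos exposed from 2 hpf were recorded at 24-25 hpf in 1-min videos and detected by a KNIME workflow from grey-value variance. Betamethasone was tested as the dipropionate, diflorasone as the diacetate.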

CC1(C)O[C@@H]2[C@@H](CO[C@@]3(COS(N)(=O)=O)OC(C)(C)O[C@@H]23)O1 [Topiramate]
Conditions	EC10 Curvature Increase [µM]	EC10 Pericard size Increase [µM]	EC10 Yolk sac size Increase [µM]	EC20 Curvature Increase [µM]	EC20 Pericard size Increase [µM]	EC20 Yolk sac size Increase [µM]	spontaneous tail coiling frequency
Danio rerio embryo [1], exposure time: 2 dpf	986	–	–	–	–	–	–
Danio rerio embryo [1], exposure time: 4 dpf	455	–	–	–	–	–	–
Danio rerio embryo [2], exposure time: 2 dpf	–	–	–	1080	–	–	–
Danio rerio embryo [2], exposure time: 4 dpf	–	–	–	591	–	–	–
Danio rerio embryo [7], exposure time: 2 dpf	–	–	–	–	–	722	–
Danio rerio embryo [7], exposure time: 4 dpf	–	–	–	–	–	149	–
Danio rerio embryo [8], exposure time: 2 dpf	–	–	–	–	33	–	–
Danio rerio embryo [8], exposure time: 4 dpf	–	–	–	–	302	–	–
Danio rerio embryo [9], exposure time: 2 dpf	–	–	601	–	–	–	–
Danio rerio embryo [9], exposure time: 4 dpf	–	–	98.8	–	–	–	–
Danio rerio embryo [10], exposure time: 2 dpf	–	11.2	–	–	–	–	–
Danio rerio embryo [10], exposure time: 4 dpf	–	210	–	–	–	–	–
Danio rerio embryo [15], 49.6 µM	–	–	–	–	–	–	0.85
Danio rerio embryo [15], 81.8 µM	–	–	–	–	–	–	1.99 ± 1.7
Danio rerio embryo [15], 135 µM	–	–	–	–	–	–	2.03 ± 1.4
Danio rerio embryo [15], 222.7 µM	–	–	–	–	–	–	0.24
Danio rerio embryo [15], 367.5 µM	–	–	–	–	–	–	1.31 ± 0.99
Danio rerio embryo [15], 606.3 µM	–	–	–	–	–	–	2.44 ± 2
Danio rerio embryo [15], 1000 µM	–	–	–	–	–	–	1.46
Danio rerio embryo [15], 1000.4 µM	–	–	–	–	–	–	2.49
Danio rerio embryo [15], 1473.4 µM	–	–	–	–	–	–	2.59

Conditions	EC10 Bladder size Decrease [µM]	EC10 Body length Decrease [µM]	EC10 Eye-jaw distance Decrease [µM]	EC10 Otolith-eye distance Decrease [µM]	EC20 Bladder size Decrease [µM]	EC20 Body length Decrease [µM]	EC20 Eye-jaw distance Decrease [µM]	EC20 Otolith-eye distance Decrease [µM]
Danio rerio embryo [3]	–	–	–	–	–	46.4	–	–
Danio rerio embryo [4]	–	24.1	–	–	–	–	–	–
Danio rerio embryo [5]	28.2	–	–	–	–	–	–	–
Danio rerio embryo [6]	–	–	–	–	34.7	–	–	–
Danio rerio embryo [11]	–	–	–	–	–	–	165	–
Danio rerio embryo [12]	–	–	133	–	–	–	–	–
Danio rerio embryo [13]	–	–	–	–	–	–	–	37.9
Danio rerio embryo [14]	–	–	–	24.4	–	–	–	–
